Among the data in patent US11135223B2, “Compositions and methods for inhibiting Dkk-1” (YALE UNIVERSITY, priority 2016, dated 2021) are Gata-3 expression values, retold here.

The subject of this assay is CD4 T cells. The experiment in a line: CD4 T cell activation and differentiation in vitro with Dkk-1 or Wnt3a. Format: cell-based, mice. The settings on record: naïve CD4 T cells, Wnt3a 20% v/v, 96 hours. The text has this:
FIG. 5, comprising FIG. 5A through FIG. 5E, depicts results of experiments showing Dkk-1 induces TH2 cell polarization. FIG. 5A depicts lungs harvested for immunohistochemistry of CD3 (dark brown), CD41 (blue) and isotype control antibodies of lungs from Dkk-1^d/d mice and their wildtype littermate controls challenged with HDM extract allergen. Orange arrowheads in the images indicate co-localized CD3 T cells with CD41^+ platelets. FIG. 5B depicts ELISA analysis of Dkk-1 from plasma samples from Dkk-1^d/d mice (n=5) collected 24 hours after challenge with 50 μg HDM. FIG. 5C depicts ELISA analysis of splenic CD4 T cells from 6-8 week-old C57BL/6 mice were activated with anti-CD3 and anti-CD28 antibodies (Act) with or without Dkk-1 (30 ng/ml unless indicated) for 4 days. FIG. 5D depicts flow cytometry analysis of splenic CD4 T cells from 6-8 week-old C57BL/6 mice were activated with anti-CD3 and anti-CD28 antibodies (Act) with or without Dkk-1 (30 ng/ml unless indicated) for 4 days. FIG. 5E depicts ELISA analysis of naïve CD4 T cells stimulated anti-CD3 and anti-CD28 antibodies for 96 hr with or without Dkk-1.
FIG. 6, comprising FIG. 6A through FIG. 6E, depicts results of experiments showing Dkk-1 induces TH2 cytokines in various T cell differentiation conditions. FIG. 6A depicts flow cytometry and ELISA analysis of naïve CD4 T cells were stimulated under TH1 polarization conditions for 96 hours with or without Dkk-1. FIG. 6B depicts flow cytometry and ELISA analysis of naïve CD4 T cells were stimulated under TH2 polarization conditions for 96 hours with or without Dkk-1. FIG. 6C depicts flow cytometry analysis of Foxp3, IL-17A, and IL-10 expression in splenic naïve CD4 T cells isolated and differentiated into iTreg for 5 days with 100 U/ml IL-2 and 1.5 ng/ml TGF-β with or without 30 ng/ml and 3 ng/ml of Dkk-1 treated during the culture. FIG. 6D depicts Gata-3 expression levels of splenic naïve CD4 T cells from 8 week-old C57BL/6 mice treated with Dkk-1 with varying doses of Dkk-1 (50, 30, 7.5 ng/ml) or Wnt3a (20% v/v) for 96 hours in the presence of anti-CD3 and anti-CD28 antibody stimulation. FIG. 6E depicts qPCR results of Tcf7 and Lef1 mRNA harvested from splenic naïve CD4 T cells from 8 week-old C57BL/6 mice stimulated with or without Dkk-1 (30 ng/ml) for 96 hours. All results were statistically non-significant. All experiments are a representative of two to three independent experiments. Student's t-test or one way-ANOVA analysis with Bonferonni's post-hoc test were performed. Small horizontal lines and error bars indicate the mean (±s.e.m.). ***, p<0.0001, **, p<0.005, *, p<0.05.
FIG. 8, comprising FIG. 8A through FIG. 8G, depicts results of experiments showing Dkk-1 induces IL-10 in CD4 T cells via SGK-1 and p38 MAPK. FIG. 8A depicts ELISA analysis of naïve CD4 T cell differentiated into TH2 cells with or without Dkk-1 (30 ng/ml), SGK-1 inhibitor (2 μM) or p38 inhibitor (10 μM) for 96 hours. FIG. 8B depicts flow cytometry analysis of human naïve CD4 T cells (CD4^+CD25^−CD45RA^+) transduced with SGK-1 shRNA and selected with puromycin (0.5 μg/ml) for 48 hours. The selected cells were stimulated with anti-CD3 mAb (OKT3) and anti-CD28 mAb with or without Dkk-1 for 96 hr. For the last 5 hr of culture, stimulation cocktail (PMA/Ionomycin/Brefeldin A/Monensin) was added. FIG. 8C depicts intracellular staining with antibodies recognizing phospho-S6 kinase of splenic CD4^+CD25^− cells from 6 week-old C57BL/6 mice were isolated and activated with anti-CD3 and anti-CD28 mAb (2 μg/ml) with or without Dkk-1 (25 ng/ml) for indicated time points. FIG. 8D depicts intracellular staining with antibodies recognizing phospho-4E-BP1 of splenic CD4^+CD25^− cells from 6 week-old C57BL/6 mice were isolated and activated with anti-CD3 and anti-CD28 mAb (2 μg/ml) with or without Dkk-1 (25 ng/ml) for indicated time points. […]

For Wnt3a, the Gata-3 expression result was “induced”.
